Measured values taken from patent publication US7198803B2, “Sustained release oral preparations” (Nippon Shinyaku Co., Ltd., priority 2000, dated 2007).

Experiments:
[1] = test system: calcium-sensitive potassium channel; conditions: known from PCT WO99/36068; cited from earlier work
[2] = plasma half life of the drug; conditions: in vivo

Cc1c(-c2ccccc2F)[nH]c(N)c1C#N [2-amino-3-cyano-5-(2-fluorophenyl)-4-methylpyrrole]
potassium channel activating effect [1]: bladder-selective calcium-sensitive potassium channel activating effect | plasma half life [2]: short plasma half life
